Our source for the IC50 values is patent US10722501B2 (BAYER AKTIENGESELLSCHAFT, priority 2016, dated 2020).

Broadly, the pIC50 is −log10 of the IC50, conventionally taken in molar units.

SMILES strings stand for the structures. pIC50: −log10 of the molar value.

The target in this test is T1, recombinant full-length human prolyl endopeptidase (PREP) (Homo sapiens, UniProt P48147).
T1 construct: To recombinant full-length human prolyl endopeptidase (PREP, R&D-Systems, 4308-SE); purchased R&D-Systems 4308-SE
T1 sequence (P48147 1-710): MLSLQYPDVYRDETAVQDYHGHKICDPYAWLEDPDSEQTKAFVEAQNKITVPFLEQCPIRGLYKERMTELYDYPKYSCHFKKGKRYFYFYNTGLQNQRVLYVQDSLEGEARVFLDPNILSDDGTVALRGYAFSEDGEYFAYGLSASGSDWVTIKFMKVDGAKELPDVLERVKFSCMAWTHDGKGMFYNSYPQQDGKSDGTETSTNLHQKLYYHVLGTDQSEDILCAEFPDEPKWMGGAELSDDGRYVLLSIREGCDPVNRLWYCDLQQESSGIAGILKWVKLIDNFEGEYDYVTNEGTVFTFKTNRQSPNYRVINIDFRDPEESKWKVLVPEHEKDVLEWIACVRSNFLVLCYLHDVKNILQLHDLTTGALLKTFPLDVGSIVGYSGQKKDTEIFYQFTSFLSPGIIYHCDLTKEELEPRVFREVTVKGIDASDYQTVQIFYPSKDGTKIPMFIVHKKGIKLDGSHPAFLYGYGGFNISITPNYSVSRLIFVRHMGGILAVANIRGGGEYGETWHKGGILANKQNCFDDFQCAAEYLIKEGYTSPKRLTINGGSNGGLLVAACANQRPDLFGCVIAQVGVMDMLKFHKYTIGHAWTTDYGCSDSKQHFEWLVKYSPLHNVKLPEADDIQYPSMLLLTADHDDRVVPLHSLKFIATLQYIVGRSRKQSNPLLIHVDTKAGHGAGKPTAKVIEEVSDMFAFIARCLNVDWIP
Briefly: Biochemical human prolyl endopeptidase (PREP) assay with fluorescently labelled substrate. Particulars: substrate Z-Gly-Pro-AMC 50 μM, 32° C., 60 min; some as mean values from multiple independent determinations. In outline:
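Initial rates of fluorescence increase from 50 μM Z-Gly-Pro-AMC cleavage (ex 360/em 465 nm, 60 min, 32° C) give percent PREP activity versus no-compound control, and IC50 is interpolated. Enzyme used at 0.4 nM (final, example) in Tris pH 7.5 with EDTA, GSH, BSA and Brij-35; compounds span 1 nM to 30 μM.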
Consider `CC1CCC(C(=O)N2CCC(F)(F)C2)n2c1nn(Cc1ccc(C(F)(F)F)nc1)c2=O` (racemic) [Example 330, (5RS,8RS)-5-[(3,3-Difluoropyrrolidin-1-yl)carbonyl]-8-methyl-2-{[6-(trifluoromethyl)pyridin-3-yl]methyl}-5,6,7,8-tetrahydro[1,2,4]triazolo[4,3-a]pyridin-3(2H)-one], for which the pIC50 is 8.31.

For `CC1Cc2nn(Cc3ccc(F)c(Cl)c3)c(=O)n2C(C(=O)N2CCC(F)(F)C2)C1` (racemic) [Example 331, (5RS,7RS)-2-(3-Chloro-4-fluorobenzyl)-5-[(3,3-difluoropyrrolidin-1-yl)carbonyl]-7-methyl-5,6,7,8-tetrahydro[1,2,4]triazolo[4,3-a]pyridin-3(2H)-one], the pIC50 was 9.17.

For the compound `CC1Cc2nn(Cc3ccc(C(F)(F)F)nc3)c(=O)n2C(C(=O)N2CCC(F)(F)C2)C1` (racemic) [Example 332, (5RS,7RS)-5-[(3,3-Difluoropyrrolidin-1-yl)carbonyl]-7-methyl-2-{[6-(trifluoromethyl)pyridin-3-yl]methyl}-5,6,7,8-tetrahydro[1,2,4]triazolo[4,3-a]pyridin-3(2H)-one], the pIC50 was 8.41.

For the compound `CC1Cc2nn(Cc3ccnc(C(F)(F)F)c3F)c(=O)n2C(C(=O)N2C[C@@H](F)[C@@H](F)C2)C1` (mixture of isomers) [Example 333, (5RS,7RS)-5-{[(3R,4S)-3,4-Difluoropyrrolidin-1-yl]carbonyl}-2-{[3-fluoro-2-(trifluoromethyl)pyridin-4-yl]methyl}-7-methyl-5,6,7,8-tetrahydro[1,2,4]triazolo[4,3-a]pyridin-3(2H)-one], the pIC50 is 8.68.

Consider `CC1Cc2nn(Cc3ccnc(C(F)(F)F)c3F)c(=O)n2C(C(=O)N2CCC(F)(F)C2)C1` (racemic) [Example 334, (5RS,7RS)-5-[(3,3-Difluoropyrrolidin-1-yl)carbonyl]-2-{[3-fluoro-2-(trifluoromethyl)pyridin-4-yl]methyl}-7-methyl-5,6,7,8-tetrahydro[1,2,4]triazolo[4,3-a]pyridin-3(2H)-one], for which the pIC50 is 8.53.

Turning to `CC1Cc2nn(Cc3ccnc(C(F)(F)F)c3F)c(=O)n2C(C(=O)N2CC(F)C2)C1` (racemic) [Example 335, (5RS,7RS)-5-[(3-Fluoroazetidin-1-yl)carbonyl]-2-{[3-fluoro-2-(trifluoromethyl)pyridin-4-yl]methyl}-7-methyl-5,6,7,8-tetrahydro[1,2,4]triazolo[4,3-a]pyridin-3(2H)-one], the pIC50 is 8.98.

Take `CC1Cc2nn(Cc3ccc(C(F)(F)F)nc3)c(=O)n2C(C(=O)N2C[C@@H](F)[C@@H](F)C2)C1` (mixture of isomers) [Example 336, (5RS,7RS)-5-{[(3R,4S)-3,4-Difluoropyrrolidin-1-yl]carbonyl}-7-methyl-2-{[6-(trifluoromethyl)pyridin-3-yl]methyl}-5,6,7,8-tetrahydro[1,2,4]triazolo[4,3-a]pyridin-3(2H)-one]: the pIC50 was 9.18.

Regarding `CC1Cc2nn(Cc3ccc(F)c(Cl)c3)c(=O)n2C(C(=O)N2C[C@@H](F)[C@@H](F)C2)C1` (mixture of isomers) [Example 339, (5RS,7RS)-2-(3-Chloro-4-fluorobenzyl)-5-{[(3R,4S)-3,4-difluoropyrrolidin-1-yl]carbonyl}-7-methyl-5,6,7,8-tetrahydro[1,2,4]triazolo[4,3-a]pyridin-3(2H)-one], the pIC50 is 9.31.

Regarding `CC1Cc2nn(Cc3ccc(F)c(Cl)c3)c(=O)n2C(C(=O)N2CC(F)C2)C1` (racemic) [Example 340, (5RS,7RS)-2-(3-Chloro-4-fluorobenzyl)-5-[(3-fluoroazetidin-1-yl)carbonyl]-7-methyl-5,6,7,8-tetrahydro[1,2,4]triazolo[4,3-a]pyridin-3(2H)-one], the pIC50 was 9.32.

As for `CC1Cc2nn(Cc3ccc(C(F)(F)F)nc3)c(=O)n2C(C(=O)N2CC(F)C2)C1` (racemic) [Example 341, (5RS,7RS)-5-[(3-Fluoroazetidin-1-yl)carbonyl]-7-methyl-2-{[6-(trifluoromethyl)pyridin-3-yl]methyl}-5,6,7,8-tetrahydro[1,2,4]triazolo[4,3-a]pyridin-3(2H)-one], the pIC50 is 8.43.

Regarding `O=C(C1CCCc2nn(Cc3ncc(C(F)(F)F)cc3Cl)c(=O)n21)N1CC(O)C1` (racemic) [Example 403, (5RS)-2-{[3-Chloro-5-(trifluoromethyl)pyridin-2-yl]methyl}-5-[(3-hydroxyazetidin-1-yl)carbonyl]-5,6,7,8-tetrahydro[1,2,4]triazolo[4,3-a]pyridin-3(2H)-one], the pIC50 is 6.72.

Turning to `Cc1cc(Cn2nc3n(c2=O)C(C(=O)N2CC(F)C2)CCC3)on1` (racemic) [Example 417, (5RS)-5-[(3-Fluoroazetidin-1-yl)carbonyl]-2-[(3-methyl-1,2-oxazol-5-yl)methyl]-5,6,7,8-tetrahydro[1,2,4]triazolo[4,3-a]pyridin-3(2H)-one], the pIC50 was 7.74.

For `Cc1ccc(C(C)n2nc3n(c2=O)[C@H](C(=O)N2CCCC2)CCC3)cc1` (mixture of isomers) [Example 502, (5S)-2-[(1 RS)-1-(4-Methylphenyl)ethyl]-5-(pyrrolidin-1-ylcarbonyl)-5,6,7,8-tetrahydro[1,2,4]triazolo[4,3-a]pyridin-3(2H)-one], the pIC50 was 8.39.

As to `O=C([C@@H]1CCCc2nn(Cc3cncc(Cl)c3)c(=O)n21)N1CC(F)C(F)C1` (mixture of isomers) [Example 548, (5S)-2-[(5-Chloropyridin-3-yl)methyl]-5-{[trans-3,4-difluoropyrrolidin-1-yl]carbonyl}-5,6,7,8-tetrahydro[1,2,4]triazolo[4,3-a]pyridin-3(2H)-one], the pIC50 is 7.51.

As to `O=C([C@@H]1CCCc2nn(Cc3ccc(Cl)nc3)c(=O)n21)N1CC(F)C(F)C1` (mixture of isomers) [Example 550, (5S)-2-[(6-Chloropyridin-3-yl)methyl]-5-{[trans-3,4-difluoropyrrolidin-1-yl]carbonyl}-5,6,7,8-tetrahydro[1,2,4]triazolo[4,3-a]pyridin-3(2H)-one], the pIC50 is 7.74.

Turning to `O=C(C1CCCc2nn(Cc3ccc(Cl)nc3)c(=O)n21)N1CC[C@H](F)C1` (mixture of isomers) [Example 561, (5RS)-2-[(6-Chlorpyridin-3-yl)methyl]-5-{[(3S)-3-fluorpyrrolidin-1-yl]carbonyl}-5,6,7,8-tetrahydro[1,2,4]triazolo[4,3-a]pyridin-3(2H)-on], the pIC50 is 9.43.

`O=C(C1CC(C(F)(F)F)Cc2nn(Cc3ncc(C(F)(F)F)cc3Cl)c(=O)n21)N1CC[C@H](F)C1` (mixture of isomers) [Example 562, (5RS,7RS)-2-{[3-Chloro-5-(trifluoromethyl)pyridin-2-yl]methyl}-5-{[(3S)-3-fluoropyrrolidin-1-yl]carbonyl}-7-(trifluoromethyl)-5,6,7,8-tetrahydro[1,2,4]triazolo[4,3-a]pyridin-3(2H)-one]: the pIC50 was 8.88.

As to `O=C(C1CC(C(F)(F)F)Cc2nn(Cc3ncc(C(F)(F)F)cc3Cl)c(=O)n21)N1CCC(F)(F)C1` (racemic) [Example 564, (5RS,7RS)-2-{[3-Chloro-5-(trifluoromethyl)pyridin-2-yl]methyl}-5-[(3,3-difluoropyrolidin-1-yl)carbonyl]-7-(trifluoromethyl)-5,6,7,8-tetrahydro[1,2,4]triazolo[4,3-a]pyridin-3(2H)-one], the pIC50 is 8.36.

As for `O=C(C1CC(C(F)(F)F)Cc2nn(Cc3ccc(Cl)cn3)c(=O)n21)N1CCC(F)(F)C1` (racemic) [Example 566, (5RS,7RS)-2-[(5-Chloropyridin-2-yl)methyl]-5-[(3,3-difluoropyrrolidin-1-yl)carbonyl]-7-(trifluoromethyl)-5,6,7,8-tetrahydro[1,2,4]triazolo[4,3-a]pyridin-3(2H)-one], the pIC50 is 8.39.

Turning to `O=C(C1CC(C(F)(F)F)Cc2nn(Cc3ncc(F)cc3F)c(=O)n21)N1CC[C@H](F)C1` (mixture of isomers) [Example 569, (5RS,7RS)-2-[(3,5-Difluoropyridin-2-yl)methyl]-5-{[(3S)-3-fluoropyrrolidin-1-yl]carbonyl}-7-(trifluoromethyl)-5,6,7,8-tetrahydro[1,2,4]triazolo[4,3-a]pyridin-3(2H)-one], the pIC50 is 9.07.

With `O=C(C1CC(C(F)(F)F)Cc2nn(Cc3ncc(F)cc3Cl)c(=O)n21)N1CC[C@H](F)C1` (mixture of isomers) [Example 571, (5RS,7RS)-2-[(3-Chloro-5-fluoropyridin-2-yl)methyl]-5-{[(3S)-3-fluoropyrrolidin-1-yl]carbonyl}-7-(trifluoromethyl)-5,6,7,8-tetrahydro[1,2,4]triazolo[4,3-a]pyridin-3(2H)-one], the pIC50 was 8.96.
